Laboratory results: patent publication US7351732B2, “Cycloalkanedione derivatives, method for the production thereof and their pharmacological applications” (Schwarz Pharma S.L., priority 2002, dated 2008)

Columns and labels:
D2 receptors = biological target: T1, D2 receptors (Rattus norvegicus, UniProt P61169); test: Radioligand displacement, D2 receptors, [3H]spiperone; format: binding; conditions: rat striatum, read-out: Ki ± E.E. D2
T1 construct: (g) D2 receptors, [^3H]spiperone, rat striatum; from tissue; host or cells: rat striatum
T1 sequence (P61169 whole entry): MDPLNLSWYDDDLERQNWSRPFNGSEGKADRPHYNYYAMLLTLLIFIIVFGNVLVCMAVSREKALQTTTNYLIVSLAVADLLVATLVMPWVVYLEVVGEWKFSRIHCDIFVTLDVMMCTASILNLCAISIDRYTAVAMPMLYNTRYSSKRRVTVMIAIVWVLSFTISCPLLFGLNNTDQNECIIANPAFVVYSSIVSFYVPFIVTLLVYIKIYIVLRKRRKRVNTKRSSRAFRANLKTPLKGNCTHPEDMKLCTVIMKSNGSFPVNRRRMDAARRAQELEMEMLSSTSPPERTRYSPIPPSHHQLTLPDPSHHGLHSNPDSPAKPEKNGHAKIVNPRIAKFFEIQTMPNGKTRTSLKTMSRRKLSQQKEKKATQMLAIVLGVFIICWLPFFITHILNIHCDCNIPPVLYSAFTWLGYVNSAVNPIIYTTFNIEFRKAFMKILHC

5-human HT1A receptor = biological target: T2, 5-human HT1A receptor (Homo sapiens, UniProt P08908); test: Test on adenylate cyclase in He-La cells (inhibition of forskolin stimulation); format: cell-based; conditions: for EC50: inhibition of forskolin-stimulated adenylate cyclase, He-La cells transfected with 5-HT1A, read-out: CE50 (the source's name); for % Maximum inhibition: inhibition of the activation induced by forskolin
T2 construct: expressed in transfected cells; host or cells: HeLa cells
T2 sequence (P08908 1-422): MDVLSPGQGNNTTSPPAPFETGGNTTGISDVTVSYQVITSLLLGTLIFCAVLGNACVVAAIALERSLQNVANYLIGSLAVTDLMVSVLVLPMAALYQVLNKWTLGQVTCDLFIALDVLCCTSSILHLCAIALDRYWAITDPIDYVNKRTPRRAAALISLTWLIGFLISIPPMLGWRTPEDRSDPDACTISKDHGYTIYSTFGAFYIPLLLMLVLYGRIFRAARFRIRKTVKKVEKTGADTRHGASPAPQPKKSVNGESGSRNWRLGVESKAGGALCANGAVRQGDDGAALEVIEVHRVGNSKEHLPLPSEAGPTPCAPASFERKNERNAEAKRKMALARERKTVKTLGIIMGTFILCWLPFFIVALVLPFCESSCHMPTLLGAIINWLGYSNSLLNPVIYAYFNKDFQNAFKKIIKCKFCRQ
From the text: The functional character of the new compounds was initially determined by studying their effect on adenylate cyclase in He—La cells transfected with the […], measuring their inhibiting effect on the stimulation of the enzyme induced by forskolin (Table 3 below).

5-HT3 receptors = biological target: T3, 5-HT3 receptors (Rattus norvegicus, UniProt P35563); test: Radioligand displacement, 5-HT3 receptors, [3H]LY 278584; format: binding; conditions: [3H]LY 278584, rat cerebral cortex; read-out: Ki ± E.E. 5-HT3
T3 construct: (c) 5-HT3 receptors, [^3H]LY 278584, rat cerebral cortex; from tissue; host or cells: rat cerebral cortex
T3 sequence (P35563 24-483): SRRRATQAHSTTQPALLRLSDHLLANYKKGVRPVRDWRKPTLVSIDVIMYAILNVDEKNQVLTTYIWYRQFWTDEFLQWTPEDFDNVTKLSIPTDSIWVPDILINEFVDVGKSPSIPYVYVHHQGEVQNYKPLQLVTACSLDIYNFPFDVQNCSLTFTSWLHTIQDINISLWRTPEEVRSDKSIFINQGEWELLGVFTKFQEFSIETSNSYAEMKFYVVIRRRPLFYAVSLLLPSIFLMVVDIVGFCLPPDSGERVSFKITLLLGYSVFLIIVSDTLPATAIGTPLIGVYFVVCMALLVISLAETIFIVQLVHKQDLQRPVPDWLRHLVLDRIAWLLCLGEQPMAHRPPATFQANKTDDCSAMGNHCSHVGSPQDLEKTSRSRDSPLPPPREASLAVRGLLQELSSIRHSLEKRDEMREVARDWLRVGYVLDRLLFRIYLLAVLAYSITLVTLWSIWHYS

5-HT1A [1] = biological target: T4, 5-HT1A (Rattus norvegicus, UniProt P19327); test: Radioligand displacement, 5-HT1A receptors, [3H]-8-OH-DPAT; format: binding; design: (a) 5-HT1A receptors, [^3H]-8-OH-DPAT, rat cerebral cortex; from tissue; host or cells: rat cerebral cortex; conditions: rat cerebral cortex, read-out: Ki ± E.E. 5-HT1A
T4 sequence (P19327 1-422): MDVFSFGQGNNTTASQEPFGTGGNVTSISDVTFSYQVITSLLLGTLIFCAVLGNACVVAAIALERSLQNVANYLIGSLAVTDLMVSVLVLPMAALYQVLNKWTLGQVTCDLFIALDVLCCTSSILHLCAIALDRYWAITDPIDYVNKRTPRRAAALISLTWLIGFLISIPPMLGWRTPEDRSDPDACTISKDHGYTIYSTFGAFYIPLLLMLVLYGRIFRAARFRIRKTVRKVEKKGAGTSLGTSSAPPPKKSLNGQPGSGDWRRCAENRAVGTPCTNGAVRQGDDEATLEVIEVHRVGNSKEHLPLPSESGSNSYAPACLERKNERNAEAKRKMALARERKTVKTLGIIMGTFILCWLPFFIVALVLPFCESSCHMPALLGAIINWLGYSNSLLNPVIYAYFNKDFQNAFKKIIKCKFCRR

[2] = test system: neurons of the hippocampal area CA1; test: Hyperpolarization of neurons of the hippocampal area CA1; format: cell-based; conditions: dose-effect curves
5-HT2A receptors = biological target: T5, 5-HT2A receptors (Rattus norvegicus, UniProt P14842); test: Radioligand displacement, 5-HT2A receptors, [3H]ketanserin; format: binding; conditions: rat cerebral cortex, read-out: Ki ± E.E. 5-HT2A
T5 construct: (b) 5-HT2A receptors, [^3H]ketanserin, rat cerebral cortex; from tissue; host or cells: rat cerebral cortex
T5 sequence (P14842 whole entry): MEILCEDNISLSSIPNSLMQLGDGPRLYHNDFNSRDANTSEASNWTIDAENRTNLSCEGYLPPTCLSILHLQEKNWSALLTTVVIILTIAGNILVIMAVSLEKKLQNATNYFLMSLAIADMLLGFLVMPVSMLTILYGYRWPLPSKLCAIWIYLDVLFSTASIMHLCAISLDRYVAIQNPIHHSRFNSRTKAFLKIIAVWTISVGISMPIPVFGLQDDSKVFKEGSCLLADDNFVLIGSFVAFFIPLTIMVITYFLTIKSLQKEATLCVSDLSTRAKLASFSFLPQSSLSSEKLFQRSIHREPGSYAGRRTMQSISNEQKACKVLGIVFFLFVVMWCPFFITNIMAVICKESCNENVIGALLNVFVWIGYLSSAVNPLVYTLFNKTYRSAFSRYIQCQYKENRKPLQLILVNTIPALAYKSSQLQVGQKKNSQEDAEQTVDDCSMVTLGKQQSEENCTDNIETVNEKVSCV

5-HT4 receptors = biological target: T6, 5-HT4 receptors (Rattus norvegicus, UniProt Q62758); test: Radioligand displacement, 5-HT4 receptors, [3H]GR 113808; format: binding; conditions: [3H]GR 113808, rat striatum; read-out: Ki ± E.E. 5-HT4
T6 construct: (d) 5-HT4 receptors, [^3H]GR 113808, rat striatum; from tissue; host or cells: rat striatum
T6 sequence (Q62758 whole entry): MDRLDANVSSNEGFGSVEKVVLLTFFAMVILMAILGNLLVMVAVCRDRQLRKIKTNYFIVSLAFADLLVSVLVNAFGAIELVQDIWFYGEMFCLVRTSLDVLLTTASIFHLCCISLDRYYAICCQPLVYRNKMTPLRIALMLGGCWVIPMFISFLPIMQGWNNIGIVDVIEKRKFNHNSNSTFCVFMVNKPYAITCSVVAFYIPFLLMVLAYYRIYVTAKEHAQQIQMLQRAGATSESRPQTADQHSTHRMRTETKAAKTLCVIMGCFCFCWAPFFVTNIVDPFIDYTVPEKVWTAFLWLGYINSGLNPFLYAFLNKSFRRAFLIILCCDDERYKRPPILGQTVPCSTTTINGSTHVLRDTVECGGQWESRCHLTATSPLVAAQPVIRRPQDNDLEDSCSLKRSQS

5-HT1A [3] = biological target: T4, 5-HT1A; test: [35S]-GTPγS fixation test to coronal sections of rat brain; format: biochemical; design: fixation test of [^35S]-GTPγS to coronal sections of rat brain; from tissue; host or cells: coronal sections of rat brain; conditions: 10 μM
Procedure: The in vitro agonist character of the new compounds was also evaluated in some cases by the fixation test of [^35S]-GTPγS to coronal sections of rat brain.

hippocampal area CA1 = test: Transient global ischemia model in gerbils; format: in vivo; conditions: gerbil, 1-5 mg/kg s.c., 30 min before and 24 and 48 h after ischemia
From the text: In the transient ischemia model in gerbils induced by temporary occlusion of both carotid arteries, the delivery of compounds no.

α1 receptors = test: Radioligand displacement, α1 receptors, [3H]prazosin; format: binding; conditions: rat cerebral cortex, read-out: Ki ± E.E. α1
[4] = test system: primary cultures of rat hippocampus; test: Apoptotic neuronal death induced by serum deprivation; conditions: 24 hours without serum; compared with compound no. 1
Procedure: The neuroprotective effect of the compounds considered was studied in experimental models in vitro, using primary cultures of rat hippocampus exposed to serum deprivation, to a toxic concentration of glutamate, or incubated in conditions of hypoxia and absence of glucose.

5-HT1A [5] = test: Mouse hypothermia test; format: in vivo
From the text: All compounds previously characterized in vitro as 5-HT1A agonists (Table 3) were delivered by subcutaneous injection to mice in order to quantify the hypothermia associated to stimulation of this serotonergic receptor subtype.

5-HT7 receptors = biological target: T7, 5-HT7 receptors (Rattus norvegicus, UniProt P32305); test: Radioligand displacement, 5-HT7 receptors, [3H]-5-CT; format: binding; conditions: [3H]-5-CT, rat hypothalamus; read-out: Ki ± E.E. 5-HT7
T7 construct: (e) 5-HT7 receptors, [^3H]-5-CT, rat hypothalamus; from tissue; host or cells: rat hypothalamus
T7 sequence (P32305 whole entry): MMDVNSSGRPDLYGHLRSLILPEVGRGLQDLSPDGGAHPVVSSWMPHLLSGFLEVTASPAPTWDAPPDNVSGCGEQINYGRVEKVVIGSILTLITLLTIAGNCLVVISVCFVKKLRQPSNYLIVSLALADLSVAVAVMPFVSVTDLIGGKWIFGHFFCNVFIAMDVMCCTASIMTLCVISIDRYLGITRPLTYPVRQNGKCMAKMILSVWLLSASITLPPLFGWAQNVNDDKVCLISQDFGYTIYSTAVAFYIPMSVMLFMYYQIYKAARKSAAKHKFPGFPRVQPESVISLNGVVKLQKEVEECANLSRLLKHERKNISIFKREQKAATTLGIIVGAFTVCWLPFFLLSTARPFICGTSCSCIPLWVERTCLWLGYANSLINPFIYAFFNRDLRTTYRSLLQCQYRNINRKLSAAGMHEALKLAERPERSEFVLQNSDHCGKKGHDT

**Q.** For `O=C1C2SCCN2C(=O)N1CCCCNCC1CCc2ccccc2O1` (racemic) [Compound 2, (±)-2-[4-[(Chroman-2-yl)methylamine]butyl]-1,3-dioxoperhydroimidazo[1,5-b]thiazol], which Ki (D2 receptors) is on record?
**A.** > 10000 nM

**Q.** And the EC50 (5-human HT1A receptor)?
**A.** 18.9 nM

**Q.** And the “% Maximum inhibition” value (5-human HT1A receptor)?
**A.** 94.5%

**Q.** And the Ki (5-HT3 receptors)?
**A.** > 10000 nM

**Q.** And the Ki (5-HT1A [1])?
**A.** 19.9 ± 6 nM

**Q.** And the “Potency in hyperpolarization test compared with 8-OH-DPAT” value [2]?
**A.** indistinguishable in potency to that of the 5-HT1A, 8-OH-DPAT type agonist

**Q.** And the Ki (5-HT2A receptors)?
**A.** > 1000 nM

**Q.** What about the Ki (5-HT4 receptors) of the same molecule?
**A.** > 10000 nM

**Q.** For `O=C1C2CSCN2C(=O)N1CCCCNCC1CCc2ccccc2O1` (racemic) [Compound 3, (±)-2-[4-[(Chroman-2-yl)methylamine]butyl]-1,3-dioxoperhydroimidazo[1,5-c]-thiazol], which EC50 (5-human HT1A receptor) is on record?
**A.** 31.5 nM

**Q.** And the “% Maximum inhibition” value (5-human HT1A receptor)?
**A.** 89.3%

**Q.** What about the Ki (5-HT1A [1]) of the same molecule?
**A.** 13.2 ± 1 nM

**Q.** What about the “[35S]-GTPγS fixation compared with 8-OH-DPAT” value (5-HT1A [3]) of the same molecule?
**A.** especially similar to those obtained with the 5-HT1A, 8-OH-DPAT agonist prototype

**Q.** For `O=C1CSC(=O)N1CCCCNCC1CCc2ccccc2O1` (racemic) [Compound 4, (±)-3-[4-[(Chroman-2-yl)methylamine]butyl]-2,4-dioxothiazolidin], which EC50 (5-human HT1A receptor) is on record?
**A.** 11.6 nM

**Q.** And the “% Maximum inhibition” value (5-human HT1A receptor)?
**A.** 89.6%

**Q.** And the Ki (5-HT1A [1])?
**A.** 30.1 ± 0.6 nM

**Q.** Which results are given for `O=C1C2CCCN2C(=O)N1CCCCNCCOc1ccccc1` (stereo not drawn) [Compound 12, 2-[4-[2-(Phenoxy)ethylamine]butyl]-1,3-dioxoperhydropyrrolo[1,2-c]imidazol]?
**A.** Ki (D2 receptors): > 1000 nM; EC50 (5-human HT1A receptor): 76.2 nM; % Maximum inhibition (5-human HT1A receptor): 87.4%; Prevention of ischemic injury in hippocampal area CA1 (Nissl stain) (hippocampal area CA1): significantly prevented the injury; Ki (5-HT3 receptors): > 1000 nM; Ki (5-HT1A [1]): 25.5 ± 0.9 nM; Ki (α1 receptors): > 1000 nM; Ki (5-HT2A receptors): > 10000 nM; Neuroprotective effect in serum deprivation [4]: the degree of protection was somewhat below; Minimum effective dosage (5-HT1A [5]; subcutaneous injection, rectal temperature): 2.5 mg/kg; Hypothermic effect (5-HT1A [5]; subcutaneous, at minimum effective dose): 1.4 °C; Ki (5-HT7 receptors): > 1000 nM; Ki (5-HT4 receptors): > 10000 nM

**Q.** Which Ki (D2 receptors) does the source give for `O=C1C2CCCN2C(=O)N1CCCCNCCOc1cccc2ccccc12` (stereo not drawn) [Compound 14, 2-[4-[2-(Naphth-1-oxi)ethylamine]butyl]-1,3-dioxoperhydropyrrolo[1,2-c]imidazol] here?
**A.** > 1000 nM

**Q.** What about the Ki (5-HT3 receptors) of the same molecule?
**A.** > 1000 nM

**Q.** What about the Ki (5-HT1A [1]) of the same molecule?
**A.** 2.4 ± 0.6 nM

**Q.** And the Ki (α1 receptors)?
**A.** 30.9 ± 4.9 nM

**Q.** What about the Ki (5-HT2A receptors) of the same molecule?
**A.** 41.5 ± 7.5 nM

**Q.** What about the Ki (5-HT7 receptors) of the same molecule?
**A.** 42.6 ± 4.4 nM

**Q.** And the Ki (5-HT4 receptors)?
**A.** > 10000 nM

**Q.** `O=C1C2CCCN2C(=O)N1CCCCNCc1nc2ccccc2[nH]1` (stereo not drawn) [Compound 16, 2-[4-[(Benzimidazol-2-yl)methylamine]butyl]-1,3-dioxoperhydropyrrolo[1,2-c]imidazol] was tested. Which Ki (D2 receptors) did it give?
**A.** > 10000 nM

**Q.** What about the Ki (5-HT3 receptors) of the same molecule?
**A.** > 1000 nM

**Q.** And the Ki (5-HT1A [1])?
**A.** > 10000 nM

**Q.** What about the Ki (α1 receptors) of the same molecule?
**A.** > 1000 nM

**Q.** And the Ki (5-HT2A receptors)?
**A.** > 10000 nM

**Q.** What about the Ki (5-HT7 receptors) of the same molecule?
**A.** > 10000 nM

**Q.** And the Ki (5-HT4 receptors)?
**A.** > 10000 nM

**Q.** With `COc1ccccc1CCCNCCCCN1C(=O)C2CCCN2C1=O` (stereo not drawn) [Compound 19, 2-[4-[3-(o-Methoxyphenyl)propylamine]butyl]-1,3-dioxoperhydropyrrolo[1,2-c]imidazol] as the molecule, how does the Ki (D2 receptors) read?
**A.** > 10000 nM

**Q.** And the Ki (5-HT3 receptors)?
**A.** > 10000 nM

**Q.** What about the Ki (5-HT1A [1]) of the same molecule?
**A.** 73.9 ± 5 nM

**Q.** What about the Ki (α1 receptors) of the same molecule?
**A.** > 1000 nM

**Q.** And the Ki (5-HT2A receptors)?
**A.** > 1000 nM

**Q.** And the Ki (5-HT7 receptors)?
**A.** > 10000 nM

**Q.** What about the Ki (5-HT4 receptors) of the same molecule?
**A.** > 10000 nM

**Q.** With `COc1ccccc1CCCCNCCCCN1C(=O)C2CCCN2C1=O` (stereo not drawn) [Compound 20, 2-[4-[4-(o-Methoxyphenyl)butylamine]butyl]-1,3-dioxoperhydropyrrolo[1,2-c]imidazol] as the molecule, how does the Ki (D2 receptors) read?
**A.** > 10000 nM

**Q.** And the Ki (5-HT3 receptors)?
**A.** > 1000 nM

**Q.** What about the Ki (5-HT1A [1]) of the same molecule?
**A.** 138 ± 26.3 nM

**Q.** What about the Ki (α1 receptors) of the same molecule?
**A.** > 1000 nM

**Q.** What about the Ki (5-HT2A receptors) of the same molecule?
**A.** > 10000 nM

**Q.** What about the Ki (5-HT7 receptors) of the same molecule?
**A.** > 10000 nM

**Q.** And the Ki (5-HT4 receptors)?
**A.** > 10000 nM

**Q.** For `COc1ccccc1CCCNCCCN1C(=O)C2CCCN2C1=O` (stereo not drawn) [Compound 21, 2-[3-[3-(o-Methoxyphenyl)propylamine]propyl]-1,3-dioxoperhydropyrrolo[1,2-c]imidazol], which Ki (D2 receptors) is on record?
**A.** > 10000 nM

**Q.** And the Ki (5-HT3 receptors)?
**A.** > 10000 nM

**Q.** What about the Ki (5-HT1A [1]) of the same molecule?
**A.** > 1000 nM

**Q.** And the Ki (α1 receptors)?
**A.** > 1000 nM

**Q.** And the Ki (5-HT2A receptors)?
**A.** > 10000 nM

**Q.** What about the Ki (5-HT7 receptors) of the same molecule?
**A.** > 10000 nM

**Q.** And the Ki (5-HT4 receptors)?
**A.** > 1000 nM
